Assay results reported in patent EP2738172A1 (Almirall, S.A., priority 2012, dated 2014).

What was measured:
[1] = tested on: Jurkat E6-1 cells; test: In vitro assay of cytokine release from T cells (IL-2 ELISA); assay type: cell-based; settings: Homo sapiens, Jurkat cells stimulated with PHA 20 µg/ml, 20 hours, secreted IL-2 by ELISA, read-out: Jurkat IL2 IC50
Protocol: In vitro assay of cytokine release from T cells
Jurkat E6-1 cells were obtained from American Type Culture Collection (ATCC) and maintained in complete medium with 10% fetal bovine serum (FBS) at 37°C/5%CO2. Cells were plated in 100 µL of Dubelcco's Modified Eagle Medium (DMEM) with 1% FBS in a 96 well plate at a density of 1x10^6 cells/well and 50 µL of test compound was added. Cells were then stimulated by the addition of 50 µL of phytohemagglutinin (PHA) (final concentration 20 µg/ml) and incubated at 37°C/5%CO2 for 20 hours. On the following day, the supernatants were collected and assayed for IL-2 levels by ELISA according to the manufacturer's protocols. The IC50 value was calculated as the concentration at which 50% of secreted IL-2 in vehicle is inhibited.

[2] = tested on: Jurkat E6-1 cells; test: fluorescent calcium flux assay (FLIPR, thapsigargin store depletion); assay type: cell-based; settings: Homo sapiens, Thapsigargin 10µM, 2mM final calcium concentration, FLIPR Calcium 5 dye, read-out: Ca^2+ flux IC50
Protocol: fluorescent calcium flux assay
Jurkat E6-1 cells were obtained from ATCC (number TIB-152™) and maintained as ATCC recommend; in medium RPMI-1640 with 10% FBS at 37°C and 5% CO2.
Before the assay, Jurkat cells were grown at a density of 2 millions cells/ml in cell culture media (RPMI with 10% FBS) in a T-175 flask at 37°C and 5% CO2. The day of the assay, cells were harvested by centrifugation (5 minutes at 1500 rpm) and the pellet were suspended in Ca^2+ free assay buffer (HBSS w/o Ca^2+ and Mg^2+, 20mM Hepes and 1 mM MgCl2, pH 7.4) at a density of 5 million cells/ml.
Calcium depletion was initiated by the addition to the cell suspension of Thapsigarguin at a final assay concentration of 10µM. 20µl of the cellular suspension containing Thapsigargin (100.000 cells/well) were plated into 384 well plates (corning 3711) and incubated at RT for 15 minutes.
Test compounds were diluted in DMSO 100% to get a 10^-2M stock solution and serial dilutions 1/3 were performed in the same solvent. Then, 20µl of test compounds, diluted 75 times in Ca^2+ free assay buffer, were added to the cells and incubated at RT for 1h.
Once this incubation was completed, 5 µl of dye solution (FLIPR Calcium 5 Express Kit, Molecular Devices), prepared as Molecular Devices recommend, were added into the assay plates followed by an extra incubation period of 1 hour at room temperature. After the second incubation period, assay plates were placed into the FLIPR Tetra from Molecular Devices. Fluorescence was measured at a wavelength of 525nm after the dye excitation at 485nm. The initial baseline was measured during 20 seconds, and then 8µl of a 13mM Calcium solution in assay buffer were added (2mM final calcium concentration) except for basal wells, where assay buffer without calcium was added. At this time, changes in the cellular fluorescent were measured for an extra 80 seconds.
Peak and base line were taken for the calculation of the ratio (Peak/Base Line). Total, basal and compound well ratio values were used to calculate %Inhibition.

IC50 [1] [nM]	IC50 [2] [nM]	Compound
40	71	COc1cc(C)c(-c2cnc3[nH]c(-c4c(F)cccc4Cl)cc3c2)cn1 [Ex. 1, 2-(2-Chloro-6-fluorophenyl)-5-(6-methoxy-4-methylpyridin-3-yl)-1H-pyrrolo[2,3-b]pyridine]
100	357	COc1cc(C)c(-c2cnc3[nH]c(-c4c(F)cccc4Cl)cc3n2)cn1 [Ex. 2, 6-(2-Chloro-6-fluorophenyl)-2-(6-methoxy-4-methylpyridin-3-yl)-5H-pyrrolo[2,3-b]pyrazine]
41	800	Cc1cc(S(=O)(=O)N(C)C)ccc1-c1cnc2[nH]c(-c3c(F)cccc3Cl)cc2n1 [Ex. 8, 4-[6-(2-chloro-6-fluorophenyl)-5H-pyrrolo[2,3-b]pyrazin-2-yl]-N,N,3-trimethylbenzenesulfonamide]
210	370	COc1cc(C)c(-c2cnc3[nH]c(-c4c(F)cc(OCCCO)cc4F)cc3c2)cn1 [Ex. 9, 3-{3,5-difluoro-4-[5-(6-methoxy-4-methylpyridin-3-yl)-1H-pyrrolo[2,3-b]pyridin-2-yl]phenoxy}propan-1-ol]
56	120	Fc1cccc(Cl)c1-c1cc2cc(-c3cc4c(cc3Cl)OC(F)(F)O4)cnc2[nH]1 [Ex. 13, 5-(6-Chloro-2,2-difluoro-1,3-benzodioxol-5-yl)-2-(2-chloro-6-fluorophenyl)-1H-pyrrolo[2,3-b]pyridine]
36	53	Cn1nc(C(F)(F)F)cc1-c1ccc2[nH]c(-c3c(F)cccc3Cl)cc2n1 [Ex. 14, 2-(2-Chloro-6-fluorophenyl)-5-[1-methyl-3-(trifluoromethyl)-1H-pyrazol-5-yl]-1H-pyrrolo[3,2-b]pyridine]
130	390	Cn1nc(C(F)(F)F)cc1-c1ccc2[nH]c(C3CCCCC3)cc2n1 [Ex. 16, 2-Cyclohexyl-5-[1-methyl-3-(trifluoromethyl)-1H-pyrazol-5-yl]-1H-pyrrolo[3,2-b]pyridine]
110	360	FC(F)Oc1cc(C(F)(F)F)nn1-c1ccc2[nH]c(C3CCCCC3)cc2n1 [Ex. 30, 2-Cyclohexyl-5-[5-(difluoromethoxy)-3-(trifluoromethyl)-1H-pyrazol-1-yl]-1H-pyrrolo[3,2-b]pyridine]
114	580	CNS(=O)(=O)c1ccc(-c2cnc3[nH]c(-c4c(F)cccc4Cl)cc3n2)c(C)c1 [Ex. 69, 4-(6-(2-Chloro-6-fluorophenyl)-5H-pyrrolo[2,3-b]pyrazin-2-yl)-N,3-dimethylbenzenesulfonamide]
117	88	Cc1nc2cc(Cl)c(-c3cnc4[nH]c(-c5c(F)cccc5Cl)cc4c3)cc2o1 [Ex. 73, 5-Chloro-6-(2-(2-chloro-6-fluorophenyl)-1H-pyrrolo[2,3-b]pyridin-5-yl)-2-methylbenzo[d]oxazole]

Compound	IC50 [1] [nM]	IC50 [2] [nM]
Cn1nc(C(F)(F)F)cc1-c1cc2cc(-c3c(F)cccc3Cl)[nH]c2cn1	860	640
